Data published in patent US7846960B2, “FXR agonists” (Eli Lilly and Company, priority 2006, dated 2010).

Key:
FXR = molecular target: T1, FXR (Homo sapiens, UniProt Q96RI1); assay: bDNA Assay for SHP mRNA; assay type: cell-based; conditions: human hepatocarcinoma Huh7 cells, 24 hours treatment, SHP mRNA by bDNA; read-out: SHP gene activation EC50
T1 construct: Plate human hepatocarcinoma Huh7 cells grown in DMEM:F12 with 10% fetal bovine serum; endogenous in cells; host or cells: Huh7 human hepatocarcinoma cells
T1 sequence (Q96RI1 1-486): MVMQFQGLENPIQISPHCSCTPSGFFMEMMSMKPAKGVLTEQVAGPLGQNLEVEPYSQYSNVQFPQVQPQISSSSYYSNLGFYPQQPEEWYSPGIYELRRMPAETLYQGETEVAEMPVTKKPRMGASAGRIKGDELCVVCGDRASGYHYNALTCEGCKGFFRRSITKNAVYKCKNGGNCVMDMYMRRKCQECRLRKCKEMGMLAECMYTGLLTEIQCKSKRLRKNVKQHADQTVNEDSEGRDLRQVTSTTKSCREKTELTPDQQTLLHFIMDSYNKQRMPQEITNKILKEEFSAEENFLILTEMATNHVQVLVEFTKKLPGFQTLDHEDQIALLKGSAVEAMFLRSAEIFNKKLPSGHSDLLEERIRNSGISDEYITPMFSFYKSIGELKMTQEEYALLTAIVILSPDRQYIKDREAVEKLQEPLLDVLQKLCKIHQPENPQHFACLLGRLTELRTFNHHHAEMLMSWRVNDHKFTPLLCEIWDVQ
Excerpt: FXR is a key, direct transcriptional regulator of the Small Heterodimer Partner (SHP) gene, accession number NM_021969, an atypical member of the nuclear receptor family that lacks a DNA-binding domain. SHP interacts with several conventional and orphan members of the nuclear receptor superfamily, including retinoid receptors and thyroid hormone receptor. SHP inhibits transactivation potential of superfamily members with which it interacts. […] Since FXR directly transactivates transcription of the SHP gene, the SHP branched DNA method (bDNA) quantitates FXR activation by ligands. Thus, increased expression of SHP mRNA, as determined by increase bDNA signal, signifies engagement of FXR by an agonist.
Plate human hepatocarcinoma Huh7 cells grown in DMEM:F12 with 10% fetal bovine serum and in 96 well plate at the density of 1×10^5/well. After overnight incubation, treat the cells with test compounds at various concentrations for 24 hours. […]
Incubate the lysis buffer for 15-minute at 37° C., then transfer 100 μL of the lysate from each well to the corresponding wells of the capture plate. […] Label the mRNA to be measured by addition of 100 μL QuantiGene® label probe working buffer then incubate for 60 minutes at 46° C. […] Incubate the plates at 37° C. for up to 30 minutes and then read on a luminometer (Packard Fusion Alpha, 1 second detection) to detect the luminescent signal. […]

LDLR−/− mice = assay: LDLR−/− Serum Lipid Modulation; assay type: in vivo; conditions: male LDLR−/− mice on western diet, 10 mg/kg, once daily oral gavage for seven days
Protocol: Acclimate animals for two weeks prior to study initiation. House mice individually in polycarbonate cages with filter tops, and maintain mice on a 12:12 hour light-dark cycle (lights on at 6:00 AM) at 21° C. Provide deionized water ad libitum and maintain for two weeks on ‘western diet’ TD 88137 Diet (42% fat, 0.15% cholesterol, Harlan Teklad) ad libitum. Optimize groups of five ten-week-old male LDLR−/− mice based on serum triglyceride and cholesterol levels. Dose groups once daily by oral gavage with various doses of the test compound dissolved in 5% EtOH/5% Solutol in NaCMC (1%), SLS (0.5%), antifoam (0.05%), Povidone (0.085%) for seven days. At the end of the seven-day dosing period, collect blood by cardiac puncture after asphyxiation in a CO2 chamber. […] Lipoproteins were separated by fast protein liquid chromatography, and cholesterol was quantitated with an in-line detection system. […] The colored product produced in the presence of cholesterol was monitored in the flow stream at 505 nm, and the analog voltage from the monitor was converted to a digital signal for collection and analysis. The change in voltage corresponding to change in cholesterol concentration was plotted vs. time, and the area under the curve corresponding to the elution of VLDL-C and HDL-C was calculated using Turbochrome (version 4.12F12) software from PerkinElmer (Norwalk, Conn.).

EC50 (FXR) [µM] | Structure (SMILES) | lowering of total cholesterol (LDLR−/− mice) [%] | lowering of triglycerides (LDLR−/− mice) [%]
~0.053 | CCN(Cc1cccc(C(=O)O)c1)c1ccc(OCc2c(C(C)C)cnn2-c2c(Cl)cccc2Cl)cc1C [Example 90, 3-[({4-[2-(2,6-Dichloro-phenyl)-4-isopropyl-2H-pyrazol-3-ylmethoxy]-2-methyl-phenyl}-ethyl-amino)-methyl]-benzoic acid] | – | –
– | Cc1cc(CN(C)c2ccc(OCc3c(C(C)C)cnn3-c3c(Cl)cccc3Cl)cc2C)cc(C(=O)O)c1 [Example 199, 3-[({4-[2-(2,6-Dichloro-phenyl)-4-isopropyl-2H-pyrazol-3-ylmethoxy]-2-methyl-phenyl}-methyl-amino)-methyl]-5-methyl-benzoic acid] | 60 | 63
